# Results reported in ChEMBL document CHEMBL5154835, “Design, synthesis and biological evaluation of sulfonamides inhibitors of XPO1 displaying activity against multiple myeloma cells” (Eur J Med Chem, 2022).
# pIC50: −log10 of the molar value.
# Tested on: MM1.S
# Assay: Antiproliferative activity against human MM1.S cells assessed as inhibition of cell growth incubated for 4 hrs by CCK-8 assay
# Format: functional, cell-based
row,pIC50,SMILES
1,6.18,NC(=O)/C(=C/n1cnc(-c2cc(C(F)(F)F)cc(C(F)(F)F)c2)n1)c1ccc(F)nc1F
2,6.15,NC(=O)/C(=C/n1cc(F)c(-c2cc(C(F)(F)F)cc(C(F)(F)F)c2)n1)c1cncnc1
3,5.93,N#Cc1cn(/C=C(/C(N)=O)c2cncnc2)nc1-c1cc(C(F)(F)F)cc(C(F)(F)F)c1
4,5.56,Cc1ccc(S(=O)(=O)Nc2ccc(/C(=C\n3cnc(-c4cc(C(F)(F)F)cc(C(F)(F)F)c4)n3)C(N)=O)cc2)cc1
5,6.07,CS(=O)(=O)Nc1ccc(/C(=C\n2cnc(-c3cc(C(F)(F)F)cc(C(F)(F)F)c3)n2)C(N)=O)cc1C(F)(F)F
6,5.92,COc1ccc(/C(=C\n2cnc(-c3cc(C(F)(F)F)cc(C(F)(F)F)c3)n2)C(N)=O)c(F)c1F
